The text below walks through data of patent publication EP0148096A1, “Diversely substituted 1-arylamino-3-amino-2-propanols, process for their preparation and their therapeutical application” (CORTIAL S.A., priority 1983, dated 1985).

In data set [1] the test system is souris rendue hypercholestérolémique. Briefly: hypolipidaemic activity, hypercholesterolaemic mouse (cholesterol and cholic acid diet, 7 days). In kind it is in vivo. Particulars: voie orale le 6e et le 7e jour, 400 mg/kg. The protocol: L'activité hypolipidémiante a été mise en évidence chez la souris rendue hypercholestérolémique par un régime riche en cholestérol et acide cholique pendant 7 jours. Ainsi l'administration par voie orale du COR37 49C le 6e et le 7e jour, entraine une diminution du cholestérol sérique de 22 % à la dose de 400 mg/kg.

The next data set relates to souris. Briefly: acute toxicity, intraperitoneal administration, solution in Tween. The format is in vivo. Particulars: voie intrapéritonéale, 200 mg/kg, solution dans le Tween.
For data set [2], the system named is oreillette gauche de cobaye. Briefly: calcium-antagonist activity in vitro, electrically stimulated guinea pig left atrium in low-calcium Tyrode. Particulars: 100 Microg/ml; 150 battements/mn, Tyrode pauvre en calcium (0,6mM), addition de 0,6 mM de calcium. In kind it is cell-based. Here is the method:
L'activité anticalcique a été déterminée in vitro sur oreillette gauche de cobaye stimulée électriquement à 150 battements/mn dans une solution de Tyrode pauvre en calcium (0,6mM).

Another data set deals with T1, Hl (Cavia porcellus, UniProt P31389).
T1 construct: in vitro sur iléon de cobaye; from tissue; host or cells: guinea pig ileum
T1 sequence (P31389 whole entry): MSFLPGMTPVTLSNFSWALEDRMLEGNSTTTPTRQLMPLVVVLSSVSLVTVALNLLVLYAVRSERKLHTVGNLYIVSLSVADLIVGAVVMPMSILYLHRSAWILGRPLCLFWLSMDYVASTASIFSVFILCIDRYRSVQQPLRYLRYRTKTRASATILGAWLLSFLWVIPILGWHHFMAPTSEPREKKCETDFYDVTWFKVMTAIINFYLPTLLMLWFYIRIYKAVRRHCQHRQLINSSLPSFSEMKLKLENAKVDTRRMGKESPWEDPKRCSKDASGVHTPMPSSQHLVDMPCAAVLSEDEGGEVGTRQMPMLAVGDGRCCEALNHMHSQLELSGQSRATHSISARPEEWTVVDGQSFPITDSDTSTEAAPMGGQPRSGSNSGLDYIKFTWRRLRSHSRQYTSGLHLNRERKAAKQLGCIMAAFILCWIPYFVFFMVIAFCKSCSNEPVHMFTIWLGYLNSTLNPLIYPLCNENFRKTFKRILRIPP
Briefly: anti-H1 antihistaminic activity in vitro, guinea pig ileum. In kind it is cell-based. As to conditions: 25 microg/ml; iléon de cobaye; read-out: inhibition des contractions induites par l'histamine. The source says: L'activité antihistaminique antiHl a été mise en évidence in vitro sur iléon de cobaye. Le COR37 49C employé à la concentration de 25 microg/ml inhibe à 80 % les contractions induites par l'histamine.

In another data set the target is T2, H2 (Cavia porcellus, UniProt P47747).
T2 construct: sur l'oreillette droite de cobaye non stimulée; from tissue; host or cells: guinea pig right atrium, unstimulated
T2 sequence (P47747 whole entry): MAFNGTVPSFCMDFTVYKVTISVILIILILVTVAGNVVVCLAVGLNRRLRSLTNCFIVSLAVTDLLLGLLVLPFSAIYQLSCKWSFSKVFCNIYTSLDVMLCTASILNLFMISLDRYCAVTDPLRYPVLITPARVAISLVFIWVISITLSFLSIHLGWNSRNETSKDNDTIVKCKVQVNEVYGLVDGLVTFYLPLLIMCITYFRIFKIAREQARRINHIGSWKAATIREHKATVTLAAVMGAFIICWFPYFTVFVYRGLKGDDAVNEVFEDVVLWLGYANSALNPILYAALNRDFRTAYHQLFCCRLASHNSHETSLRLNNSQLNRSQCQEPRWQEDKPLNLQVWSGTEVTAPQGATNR
Briefly: anti-H2 antihistaminic activity in vitro, unstimulated guinea pig right atrium. In kind it is cell-based. Particulars: 25 microg/ml; 5 microg/ml d'histamine, oreillette droite de cobaye non stimulée; read-out: inhibition de l'effet chronotrope induit par l'histamine. The source says:
L'activité antihistaminique antiH2 a été mise en évidence in vitro. A la concentration de 25 microg/ml le COR37 49C inhibe à 50 % l'effet chronotrope induit par 5 microg/ml d'histamine sur l'oreillette droite de cobaye non stimulée.

Data set [3] has as its system rat en surcharge hydrique. Briefly: diuretic activity, water-loaded rat. In kind it is in vivo. Particulars: dose orale de 20 mg/kg, fold factor. The protocol: L'activité diurétique a été déterminée chez le rat. Ainsi le COR37 49C administré au rat en surcharge hydrique à la dose orale de 20 mg/kg multiplie par 2,2 l'excrétion urinaire de sodium.
Data set [4] is described as follows: acute toxicity, oral administration, solution in Tween. Particulars: mouse, in vivo, souris, voie orale, 300 mg/kg, solution dans le Tween, read-out: mortalité. The protocol: La toxicité a été déterminée chez la souris. En solution dans le Tween et après administration par voie orale le COR37 05C entraine 0 % de mortalité à 500 mg/kg, 40 % à 750 et 40 % à 1000; le COR37 06C entraine 0 % de mortalité à 100 mg/kg, 10 % à 200, 10 % à 250, 90 % à 375, 100 % à 500 (DL50 = 294 mg/kg (261-332); les COR37 09C, COR37 49C et COR37 50C entrainent 0 % de mortalité à 300 mg/kg. En solution dans le Tween et après administration par voie intrapéritonéale le COR37 05C entraine 0 % de

Each structure is given as a SMILES string.

With `CC(C)c1ccccc1NCC(O)CN(C)C` (stereo not shown) [COR37 49C, Dichlorhydrate de l'(isopropyl-2 anilino)-l diméthylamino-3 propanol-2], the “diminution du cholestérol sérique” value in data set [1] is recorded as 22%. Moreover, in the data set on souris, the mortalité result is reported as “aucune mortalité”. Also, the activité anticalcique entry in data set [2] is reported as “inhibent l'augmentation de la force contractile”. Also, the results for the inhibition at 25 µg/mL at Hl and at H2 were 80% and 50%, respectively. Moreover, in data set [3], the “multiplication de l'excrétion urinaire de sodium” value is 2,2. The mortality in data set [4] was determined as 0%.

The term inhibition denotes the relative decrease from the control value, in per cent.
